Patent US20250304623A1, “PEPTIDES FOR INTRACELLULAR DELIVERY” (UNIVERSIDADE DE SANTIAGO DE COMPOSTELA, priority 2022, published 2025)
*: point of attachment. NHNH2 = NN*

Tests used:
Format in all cases: cell-based
[1] = tested on: Hela cells expressing EGFP; assay: Cas9-RNP delivery against EGFP (gene editing, plate reader), HeLa; settings: for % GFP silencing due to gene editing (Cas9-RNP): HeLa
Description: To generate an EGFP expressing HeLa cell line, HeLa cells were transfected with EGFP pDNA (pEGFP-C1, Clontech) and stable transfectants were selected with 400 μg/mL of G-418 (Millipore). Green clones were selected by epifluorescence microscopy and tested for EGFP expression stability through several passages. […] All other EGFP-expressing cell lines were obtained in a similar way from parent non-EGFP-expressing cell lines.
Cells expressing EGFP were seeded in a 96 well plate the day before the experiment at a concentration of 50,000 cell/mL (100 μL/w) in DMEM+10% FBS+1% Gln-Abt. For robotic library screening, the delivery of Cas9-RNP against EGFP (RNP designed to knock-out the gene encoding for the enhanced green fluorescent protein (EGFP)) was performed. For RNP assembly, 9.2 μL of crRNA and 9.2 μL of tracrRNA were mixed in 211.6 μL of Nuclease-Free Duplex Buffer (IDT), incubated for 5 min at 95° C. and slowly cooled at rt (see I. Lostalé-Seijo, et al. Peptide/Cas9 nanostructures for ribonucleoprotein cell membrane transport and gene edition, Chem. Sci., 2017). Cas9 protein was dissolved in DMEM at a final concentration of 4 μM and equal volumes of the RNA complex and Cas9 were mixed and incubated for 5 min at rt. 75 μL of the corresponding amphiphile concentrations were added to 5 μL of RNP at 2 μM. The mixture was shaken for 30 min at room temperature before the addition to the cells. The cell medium was aspirated, and cells were washed twice with PBS. Cells were covered with 30 μL of DMEM and 20 μL of the RNP/amphiphile complexes were added to the cells (final peptide concentrations=2.5, 5 and 10 μM; final Cas9-RNP concentration=50 nM) and incubated for 4 h. After the incubation, the medium was replaced by 100 μL of fresh DMEM supplemented with 10% FBS. The total EGFP fluorescence was quantified after 72 h in a plate reader (FIG. 2, Table 1 (right) and Table 6). All experiments were done in triplicate.
(§1) Tables 1-7: RLuc (pDNA) or EGFP (mRNA) expression levels were normalized to Lipofectamine reagents (value=1) and expressed as fold-times signal increase. In the case of siRNA, the siRNA treated cells fluorescence was compared with siMOCK control fluorescence, while Cas9-RNP mediated knockout was measured against the fluorescence of untreated cells. In both siRNA and Cas9-RNP, values are expressed as % fluorescence reduction. Amphiphile concentration was 5 μM in all cases. All experiments were performed in triplicate.
Tables 26-31 show the mean (triplicates) percentage of gene editing, accounted by GFP fluorescence intensity decrease (% of reduction), measured after the transfection of Cas9-RNP by different amphiphiles at different concentrations in a variety of cell lines. Background values, accounted by untreated control cells, were subtracted for processing.

[2] = tested on: A549 cells; assay: EGFP mRNA delivery, robotic library screening, A549
Description: Cells were seeded in a 96 well plate the day before the experiment at a concentration of 50,000 cell/mL (100 μL/w) in DMEM+10% FBS+1% Gln-Abt. For robotic library screening, the delivery of EGFP-mRNA (from TriLink, fully substituted with 5-methoxyuridine, capped and polyadenylated; TriLink, CleanCap® EGFP mRNA (5moU), ref. L-7201) in six different cell lines was performed. Amphiphilic molecule stock solutions were prepared in DMSO as described above and diluted in DMEM to afford a range of concentrations. The solutions of EGFP-mRNA/amphiphilic molecule complexes were freshly prepared prior to the transfection experiments. 35 μL of the corresponding amphiphile were added to 10 μL of a solution of EGFP-mRNA at 10 ng/μL in DMEM. The mixture was shaken for 30 min at room temperature before the addition to the cells. The cell medium was aspirated, and cells were washed with PBS twice. Cells were covered with 39 μL of DMEM and 11 μL of the complex's solution were added to the cells and incubated for 4 h (final concentration of peptide=2.5, 5 and 10 μM; final concentration of EGFP-mRNA=25 ng/well). After the incubation, the medium was replaced by 100 μL of fresh DMEM supplemented with 10% FBS. The total EGFP fluorescence was quantified after 72 h in a well plate reader. Amphiphile transfection efficiency was compared and normalized to Lipofectamine® MessengerMax efficiency (value of 1 in Tables 1-5 and 7; double underlined numbers). All experiments were done in triplicate.
as §1
Tables 14-19 show the mean (triplicates) fluorescence intensity measured after the transfection of EGFP mRNA by different amphiphiles at different concentrations in a variety of cell lines. Background fluorescence values, accounted by untreated control cells, were subtracted for processing.

[3] = tested on: Hek293 cells; assay: RLuc pDNA delivery, robotic library screening, Hek293
[4] = Petroselinyl, 10 μM, Hela cells
[5] = Petroselinyl, 15 μM, Hela cells

Substance | percentage of gene editing, GFP fluorescence intensity decrease (% of reduction) ([1]; Myristoleyl, 5 μM, HeLa cells) | percentage of gene editing, GFP fluorescence intensity decrease (% of reduction) [1, 4] | percentage of gene editing, GFP fluorescence intensity decrease (% of reduction) [1, 5] | mean fluorescence intensity (EGFP mRNA) ([2]; Myristoleyl, 5 μM) | mean fluorescence intensity (EGFP mRNA) ([2]; Myristoleyl, 10 μM) | mean fluorescence intensity (EGFP mRNA) ([2]; Petroselinyl, 2.5 μM) | mean fluorescence intensity (EGFP mRNA) ([2]; Petroselinyl, 5 μM) | mean fluorescence intensity (EGFP mRNA) ([2]; Petroselinyl, 10 μM) | mean luminescent intensity (RLuc pDNA) ([3]; Dodecanal, 15 μM) | mean luminescent intensity (RLuc pDNA) ([3]; Palmitoleyl, 5 μM) | mean luminescent intensity (RLuc pDNA) ([3]; Palmitoleyl, 10 μM) | mean luminescent intensity (RLuc pDNA) ([3]; Palmitoleyl, 15 μM) | mean luminescent intensity (RLuc pDNA) ([3]; Petroselinyl, 5 μM) | mean luminescent intensity (RLuc pDNA) ([3]; Petroselinyl, 10 μM) | mean luminescent intensity (RLuc pDNA) ([3]; Petroselinyl, 15 μM) | percentage of gene editing, GFP fluorescence intensity decrease (% of reduction) ([1]; Dodecanal, 5 μM, Hela cells) | percentage of gene editing, GFP fluorescence intensity decrease (% of reduction) ([1]; Dodecanal, 10 μM, HeLa cells) | percentage of gene editing, GFP fluorescence intensity decrease (% of reduction) ([1]; Dodecanal, 15 μM, Hela cells) | percentage of gene editing, GFP fluorescence intensity decrease (% of reduction) ([1]; Myristoleyl, 15 μM, Hela cells) | mean luminescent intensity (RLuc pDNA) ([3]; Dodecanal, 10 μM) | other results
Ac-RRHK*RLK*RRLK*RL-NH2 (Ac-RRHK(NHNH2)RLK(NHNH2)RRLK(NHNH2)RL-NH2; not fully specified; printed as Ac-RRHK*RLK*RRLK*RL-NH2; also: K*4,K*7,K*11: native or modified lysine (ε-amide to a linker)) [13(Leu-His)] | 16% | 74% | 81% | 370 | 569 | 1141 | 437 | 245 | 62749 RLU | 240629 RLU | 77558 RLU | 7639 RLU | 213228 RLU | 77709 RLU | 6882 RLU | – | – | – | – | – | % GFP silencing due to gene editing (Cas9-RNP) ([1]; 5 μM, Myr tail): 73%; percentage of gene editing, GFP fluorescence intensity decrease (% of reduction) ([1]; Myristoleyl, 10 μM, HeLa cells): 73%; percentage of gene editing, GFP fluorescence intensity decrease (% of reduction) ([1]; Petroselinyl, 5 μM, HeLa cells): 39%; mean fluorescence intensity (EGFP mRNA) ([2]; Dodecanal, 2.5 μM): 2133; mean fluorescence intensity (EGFP mRNA) ([2]; Dodecanal, 5 μM): 803; mean fluorescence intensity (EGFP mRNA) ([2]; Dodecanal, 10 μM): 170; mean fluorescence intensity (EGFP mRNA) ([2]; Myristoleyl, 2.5 μM): 882; mean fluorescence intensity (EGFP mRNA) ([2]; Palmitoleyl, 2.5 μM): 1406; mean fluorescence intensity (EGFP mRNA) ([2]; Palmitoleyl, 5 μM): 916; mean fluorescence intensity (EGFP mRNA) ([2]; Palmitoleyl, 10 μM): 617
Ac-RK*LRRLLRK*-NH2 (Ac-RK(NHNH2)LRRLLRK(NHNH2)-NH2; not fully specified; printed as Ac-RK*LRRLLRK*-NH2; also: K*2,K*9: native or modified lysine (ε-amide to a linker)) [Peptide 9.2] | −12% | – | – | 205 | −79 | – | – | – | 18149 RLU | – | – | – | – | – | – | 6% | 14% | 47% | 52% | 32272 RLU | mean luminescent intensity (RLuc pDNA) ([3]; Oleyl, 15 μM): 435 RLU
Ac-RK*LRRK*LRK*-NH2 (Ac-RK(NHNH2)LRRK(NHNH2)LRK(NHNH2)-NH2; not fully specified; printed as Ac-RK*LRRK*LRK*-NH2; also: K*2,K*6,K*9: native or modified lysine (ε-amide to a linker)) [Peptide 9.3] | 14% | 49% | 77% | 219 | −17 | 94 | 789 | 349 | 33244 RLU | −143 RLU | −284 RLU | 3126 RLU | −1091 RLU | −1142 RLU | 147 RLU | 25% | 61% | 80% | 81% | 71221 RLU | % GFP silencing due to gene editing (Cas9-RNP) ([1]; 5 μM, Dod tail): 80%; % GFP silencing due to gene editing (Cas9-RNP) ([1]; 5 μM, Pal tail): 77%; percentage of gene editing, GFP fluorescence intensity decrease (% of reduction) ([1]; Oleyl, 5 μM, HeLa cells): 11%; percentage of gene editing, GFP fluorescence intensity decrease (% of reduction) ([1]; Oleyl, 10 μM, HeLa cells): 26%; percentage of gene editing, GFP fluorescence intensity decrease (% of reduction) ([1]; Palmitoleyl, 10 μM, HeLa cells): 44%; percentage of gene editing, GFP fluorescence intensity decrease (% of reduction) ([1]; Palmitoleyl, 15 μM, Hela cells): 77%; mean fluorescence intensity (EGFP mRNA) ([2]; Oleyl, 2.5 μM): 89; mean fluorescence intensity (EGFP mRNA) ([2]; Oleyl, 5 μM): 399; mean fluorescence intensity (EGFP mRNA) ([2]; Oleyl, 10 μM): 139; mean luminescent intensity (RLuc pDNA) ([3]; Oleyl, 15 μM): 4792 RLU
